Measurements reported in paper PMC12040169 (PLOS Biology, 2025).

Test: in vitro
Conditions: human, hela cells, % viability

| SMILES | viability at 28.5 h, 10 µM |
| --- | --- |
| COCCc1noc(C(C)NC(=O)Cc2cccc(O)c2)n1 (stereo not drawn) [CBK307493] | 99.5% |
| CCCCC(c1cccnc1)N(C)C(=O)c1cccn(C)c1=O (stereo not drawn) [CBK307496] | 114% |
| Cc1nn2cc(CNC(=O)C3Cc4ccccc4O3)nc2s1 (stereo not drawn) [CBK307498] | 73.4% |
| CCc1c(C(=O)N(C)Cc2cnn(C(C)C)c2)[nH]c2ccccc12 [CBK307501] | 92.9% |
| CCCS(=O)(=O)N1CCCC(Cc2ccccc2C)(C(=O)OCC)C1 (stereo not drawn) [CBK307502] | 84.9% |
| CCC(NC(=O)c1cc(CC(C)C)nn1CC)c1cn2cccnc2n1 (stereo not drawn) [CBK307505] | 101% |
| OCCn1nc(C2CCCC2)nc1CCc1c[nH]c2ccccc12 [CBK307509] | 85.1% |
| CCOCc1nc2c(c(NCc3cc(C)on3)n1)CCN(C(C)=O)CC2 [CBK307512] | 87.4% |
| Cc1csc2c(N3CCC(NCCc4ccnn4C)CC3)ncnc12 [CBK307515] | 89.8% |
| CCOC(=O)C1(Cc2ccc(F)cc2F)CCCN(C(C)=O)C1 (stereo not drawn) [CBK307516] | 106% |
| CN1CCN(CC2(CNC(=O)c3ccc(C(=O)O)cc3)CC2)CC1 [CBK307517] | 102% |
| Cc1ccn2cc(CNC(=O)CN3CCOc4ccccc4C3)nc2c1 [CBK307518] | 84.6% |
| COCCc1nc(Cc2ccc(OC)cc2)nn1CC1COCCO1 (stereo not drawn) [CBK307521] | 89.7% |
| CCC(O)Cn1nc(CCSC)nc1-c1ccc2[nH]ccc2c1 (stereo not drawn) [CBK307526] | 104% |
| COc1ccc(C(NC(=O)Cn2cccnc2=O)C2CC(O)C2)cn1 (stereo not drawn) [CBK307527] | 83.4% |
| CCc1ccc(CN2CCC(Oc3ccccc3F)(C(=O)O)CC2)nc1 [CBK307528] | 93.1% |
| Cc1nnc(SCCCNC(=O)C2CC(=O)N(Cc3ccccn3)C2)s1 (stereo not drawn) [CBK307529] | 101% |
| CCOc1ccc(-c2ccnc(NCC(C)(C)CO)n2)cc1C(=O)O [CBK307530] | 88.6% |

| SMILES | viability at 28.5 h, 10 µM |
| --- | --- |
| CCCS(=O)(=O)NC1CC(C)(C)Cc2c1cnn2-c1ccc(C)cc1 (stereo not drawn) [CBK307531] | 86.5% |
| Cc1ccc(OCc2occc2C(=O)N2CCCC3(CCOC3)C2)cc1 (stereo not drawn) [CBK307532] | 89.4% |
| CC(NC(=O)N1CCCN(Cc2ccccn2)CC1)c1cnn(C)c1 (stereo not drawn) [CBK307537] | 102% |
| CC(C)CCN1CCn2nc(CNc3cnccn3)cc2C1 [CBK307540] | 85.8% |
| CCc1nc2c(N3CCCn4nc(C(O)C5CC5)cc4C3)ncnc2o1 (stereo not drawn) [CBK307543] | 78.6% |
| CCCn1ncnc1C(C)NC(=O)Nc1ccnn1CC(C)C (stereo not drawn) [CBK307545] | 116% |
| COc1cccc(C2CC(=O)Nc3c2c(=O)nc(SC)n3C)c1 (stereo not drawn) [CBK307546] | 104% |
| CCCNS(=O)(=O)c1cc2c3c(c1)c(C)cc(=O)n3CCC2 [CBK307547] | 97.1% |
| CO[C@@]12CC[C@@H](OCC(=O)O)C[C@@H]1N(Cc1ccccc1C)CC2 [CBK307548] | 104% |
| CC(=O)N1CCN(C(=O)Cn2ccc3ccccc32)CC(O)C1 (stereo not drawn) [CBK307552] | 98.1% |
| COc1nccc(N2CCCC(CO)(CC3CC3)C2)c1C#N (stereo not drawn) [CBK307553] | 89.3% |
| Cc1cc(C)n(CCn2cc(-c3ncc[nH]3)nn2)c(=O)n1 [CBK307554] | 83.1% |
| COC(=O)Cn1c(C(C)(C)C)cn2c3c(=O)n(C)c(=O)n(C)c3nc12 [CBK307555] | 84.3% |
| Cc1cnn(C(C)C(=O)N2CCc3c(nc(N(C)C)nc3N(C)C)C2)c1 (stereo not drawn) [CBK307556] | 109% |
| COc1cncc(C(NC(=O)Cn2ccccc2=O)[C@H]2C[C@@H](O)C2)c1 (stereo partly drawn) [CBK307557] | 92.5% |
| O=C(c1cnc[nH]1)N1CCn2nc(C(O)Cc3ccccc3)cc2C1 (stereo not drawn) [CBK307558] | 109% |
| Cc1c(C)n(Cc2ccco2)c2ncnc(NC(C)C(=O)O)c12 (stereo not drawn) [CBK307561] | 106% |
| Cc1c(C)n(Cc2ccco2)c2ncnc(NCCC(=O)O)c12 [CBK307564] | 86.8% |
